target: T1, human S1P1 receptors (Homo sapiens, UniProt P21453); test: S1P1R antagonist assay (fluorescent membrane potential dye, cAMP readout); assay type: cell-based; details: HEK293 cells expressing human S1P1 receptors and CNG channel; 500 nM NECA; S1P1R agonist 10 nM; 90 minutes; read-out: EC50 or IC50 value
T1 construct: host or cells: HEK293
Source text: The S1P1R antagonist assay is a fluorescent membrane potential dye measurement assay, indicative of intracellular cAMP changes due to G protein-coupled receptor activation. HEK293 cells engineered to express human S1P1 receptors and a cyclic nucleotide-gated (CNG) channel are obtained from BD Biosciences, 80300-250. The CNG channels are activated by elevated levels of cAMP, resulting in ion flux and cell membrane depolarization. Membrane depolarization is detected with a membrane potential dye. Stimulation of the cells with 5′-(N-ethylcarboxamido)adenosine (NECA), an A2b receptor agonist (Sigma, E2387), elicits an A2bR-dependent increase in cAMP.
Subsequent exposure of the cells to a S1P1R agonist suppresses the NECA induced increase in cAMP through S1P1R-specific signaling by inhibiting adenylyl cyclase and the formation of cAMP from ATP. The degree to which a test compound overcomes the S1P1R agonist suppression of the NECA induced increase in cAMP is a measure of S1P1R antagonist activity. Antagonist activity is quantified as the IC50 (i.e., the concentration needed to elicited one-half of the maximum response of the test compound) and/or as the EC50 (i.e., the concentration needed to elicited one-half of the NECA induced stimulation).
Day 1: Freshly thawed cells were plated into 384-well plates (Corning, 3683) at a density of 14,000 cells/well in 20 μL, complete media and incubated for 16 hours at 37° C., 5% CO2 and 99% relative humidity. Complete media included Dulbecco's modified Eagle's medium (Invitrogen, 11965-092), 10% Fetal bovine serum (Hyclone, SH30071.03), 250 μg/mL geneticin (Invitrogen, 10131-027), and 1 μg/mL Puromycin (Fluka, 82595).
Day 2: Membrane potential dye (20 μL, BD Biosciences, 341833) was added to each well and the plates were incubated for 2.5 hours at ambient temperature. Test compounds (20 μL) were added to the wells at various concentrations (≦10 μM, 1 to 3 dilutions) in a NECA base solution and incubated for 90 minutes in the presence of the S1P1R agonist {4-((4-phenyl-5-trifluoromethyl-2-thienyl)methoxy)benzyl}-3-azetidinecarboxylic acid (10 nM). The NECA-base solution contained Dulbecco's phosphate-buffered saline (Invitrogen, 14190-136), 2.5% DMSO (Fluka, 41648), 25 μM Ro 20-1724 (Sigma, B8279), and 500 nM NECA).
Assay plates were read with a PerkinElmer EnVision reader (Excitation 350 nm, Emission 590 nm) at time T=0 minutes, before compound addition and at time T=90 minutes. The signal was calculated as the ratio T90/T0. Data was analyzed in ActivityBase XE and graphs showing log of compound concentration (X-axis) vs. % activity (Y-axis) were generated for IC50 determinations. Percent activity was calculated with the following formula: (Signal−Agonist Control Signal)/(NECA Control Signal−Agonist Control Signal)×100.

T1 sequence (P21453 whole entry): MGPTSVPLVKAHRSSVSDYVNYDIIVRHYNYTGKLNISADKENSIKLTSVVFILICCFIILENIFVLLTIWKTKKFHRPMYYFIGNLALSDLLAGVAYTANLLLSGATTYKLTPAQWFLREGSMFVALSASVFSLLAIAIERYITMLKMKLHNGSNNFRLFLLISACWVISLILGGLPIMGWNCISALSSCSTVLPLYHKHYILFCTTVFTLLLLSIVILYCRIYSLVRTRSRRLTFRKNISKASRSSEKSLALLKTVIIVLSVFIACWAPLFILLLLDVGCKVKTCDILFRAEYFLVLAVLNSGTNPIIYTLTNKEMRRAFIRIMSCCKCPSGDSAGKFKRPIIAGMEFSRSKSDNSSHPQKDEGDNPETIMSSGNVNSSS

O=C(Nc1ccc(Oc2ccc(F)cc2)cc1)[C@@H]1C[C@@H](Cc2ccccc2C(F)(F)F)CN1C(=O)Cn1cncn1 [Compound 54, (2S,4R)-1-(2-(1H-1,2,4-triazol-1-yl)acetyl)-N-(4-(4-fluorophenoxy)phenyl)-4-(2-(trifluoromethyl)benzyl)pyrrolidine-2-carboxamide] and Cc1ccccc1C[C@@H]1C[C@@H](C(=O)Nc2ccc(Oc3ccc(F)cc3)cc2)N(C(=O)Cn2cncn2)C1 [Compound 55, (2S,4R)-1-(2-(1H-1,2,4-triazol-1-yl)acetyl)-N-(4-(4-fluorophenoxy)phenyl)-4-(2-methylbenzyl)pyrrolidine-2-carboxamide] cannot be ordered by IC50: ≤ 300 nM for the first, ≤ 300 nM for the second.

O=C(Nc1ccc(Oc2ccc(F)cc2)cc1)[C@@H]1C[C@@H](Cc2ccccc2Cl)CN1C(=O)Cn1nccn1 [Compound 56, (2S,4R)-1-(2-(2H-1,2,3-triazol-2-yl)acetyl)-4-(2-chlorobenzyl)-N-(4-(4-fluorophenoxy)phenyl)pyrrolidine-2-carboxamide] and O=C(Nc1ccc(Oc2ccc(F)cc2)cc1)[C@@H]1C[C@@H](Cc2ccccc2)CN1C(=O)Cn1nccn1 [Compound 58, (2S,4R)-1-(2-(2H-1,2,3-triazol-2-yl)acetyl)-4-benzyl-N-(4-(4-fluorophenoxy)phenyl)pyrrolidine-2-carboxamide] cannot be ordered by IC50: ≤ 300 nM for the first, ≤ 300 nM for the second.

O=C(Nc1ccc(Oc2ccc(F)cc2)cc1)[C@@H]1C[C@@H](Cc2ccccc2Cl)CN1C(=O)Cn1cncn1 [Compound 57, (2S,4R)-1-(2-(1H-1,2,4-triazol-1-yl)acetyl)-4-(2-chlorobenzyl)-N-(4-(4-fluorophenoxy)phenyl)pyrrolidine-2-carboxamide] and O=C(Nc1ccc(Oc2ccc(F)cc2)cc1)[C@@H]1C[C@@H](Cc2cccc(Cl)c2)CN1C(=O)Cn1cncn1 [Compound 61, (2S,4R)-1-(2-(1H-1,2,4-triazol-1-yl)acetyl)-4-(3-chlorobenzyl)-N-(4-(4-fluorophenoxy)phenyl)pyrrolidine-2-carboxamide] cannot be ordered by IC50: ≤ 300 nM for the first, ≤ 300 nM for the second.

First: O=C(Cc1c[nH]cn1)N[C@@H](COCc1ccccc1)c1nc2cc(Oc3ccc(F)cc3)ccc2[nH]1 [Compound 59, (R)—N-(2-(benzyloxy)-1-(5-(4-fluorophenoxy)-1H-benzo[d]imidazol-2-yl)ethyl)-2-(1H-imidazol-4-yl)acetamide]
Second: CC(=O)N[C@@H](COCc1ccccc1)c1nc2cc(Oc3ccc(F)cc3)ccc2[nH]1 [Compound 60, (R)—N-(2-(benzyloxy)-1-(5-(4-fluorophenoxy)-1H-benzo[d]imidazol-2-yl)ethyl)acetamide]
The IC50 of the first is lower: 300 to 1000 nM for the first, > 1000 nM for the second. The first is the more potent here.

COc1ccc([C@@H]2C[C@@H](C(=O)Nc3ccc(Oc4ccc(F)cc4)cc3)N(C(=O)Cn3cncn3)C2)cc1 [Compound 62, (2S,4S)-1-(2-(1H-1,2,4-triazol-1-yl)acetyl)-N-(4-(4-fluorophenoxy)phenyl)-4-(4-methoxyphenyl)pyrrolidine-2-carboxamide] and COc1cccc(C[C@@H]2C[C@@H](C(=O)Nc3ccc(Oc4ccc(F)cc4)cc3)N(C(=O)Cn3cncn3)C2)c1 [Compound 70, (2S,4R)-1-(2-(1H-1,2,4-triazol-1-yl)acetyl)-N-(4-(4-fluorophenoxy)phenyl)-4-(3-methoxybenzyl)pyrrolidine-2-carboxamide] cannot be ordered by IC50: ≤ 300 nM for the first, ≤ 300 nM for the second.

Compared with CC1CCCN1CC(=O)N[C@@H](COCc1ccccc1)C(=O)Nc1ccc(Oc2ccc(F)cc2)cc1 (stereo partly drawn) [Compound 63, (2S)-3-(benzyloxy)-N-(4-(4-fluorophenoxy)phenyl)-2-(2-(2-methylpyrrolidin-1-yl)acetamido)propanamide], O=C(Nc1ccc(Oc2ccc(F)cc2)cc1)[C@@H]1C[C@@H](c2ccccc2)CN1C(=O)Cn1nccn1 [Compound 77, (2S,4S)-1-(2-(2H-1,2,3-triazol-2-yl)acetyl)-N-(4-(4-fluorophenoxy)phenyl)-4-phenylpyrrolidine-2-carboxamide] is lower in IC50: > 1000 nM for the first, 300 to 1000 nM for the second. The second is the more potent here.

O=C(Nc1ccc(Oc2ccc(F)cc2)cc1)[C@@H]1C[C@@H](Cc2cccs2)CN1C(=O)Cn1nccn1 [Compound 64, (2S,4S)-1-(2-(2H-1,2,3-triazol-2-yl)acetyl)-N-(4-(4-fluorophenoxy)phenyl)-4-(thien-2-ylmethyl)pyrrolidine-2-carboxamide] and O=C(Nc1ccc(Oc2ccc(F)cc2)cc1)[C@@H]1C[C@@H](Cc2ccc(Cl)s2)CN1C(=O)Cn1nccn1 [Compound 66, (2S,4S)-1-(2-(2H-1,2,3-triazol-2-yl)acetyl)-4-((5-chlorothien-2-yl)methyl)-N-(4-(4-fluorophenoxy)phenyl)pyrrolidine-2-carboxamide] cannot be ordered by IC50: ≤ 300 nM for the first, ≤ 300 nM for the second.

O=C(Nc1ccc(Oc2ccc(F)cc2)cc1)[C@@H]1C[C@@H](Cc2ccc(Cl)s2)CN1C(=O)Cn1ccnn1 [Compound 65, (2S,4S)-1-(2-(1H-1,2,3-triazol-1-yl)acetyl)-4-((5-chlorothien-2-yl)methyl)-N-(4-(4-fluorophenoxy)phenyl)pyrrolidine-2-carboxamide] and O=C(Nc1ccc(Oc2ccc(F)cc2)cc1)[C@@H]1C[C@@H](Cc2ccc(Cl)s2)CN1C(=O)Cn1cncn1 [Compound 67, (2S,4S)-1-(2-(1H-1,2,4-triazol-1-yl)acetyl)-4-((5-chlorothien-2-yl)methyl)-N-(4-(4-fluorophenoxy)phenyl)pyrrolidine-2-carboxamide] cannot be ordered by IC50: ≤ 300 nM for the first, ≤ 300 nM for the second.

COc1cccc(C[C@@H]2C[C@@H](C(=O)Nc3ccc(Oc4ccc(F)cc4)cc3)N(C(=O)Cn3ccnn3)C2)c1 [Compound 68, (2S,4R)-1-(2-(1H-1,2,3-triazol-1-yl)acetyl)-N-(4-(4-fluorophenoxy)phenyl)-4-(3-methoxybenzyl)pyrrolidine-2-carboxamide] and COc1cccc(C[C@@H]2C[C@@H](C(=O)Nc3ccc(Oc4ccc(F)cc4)cc3)N(C(=O)Cn3nccn3)C2)c1 [Compound 69, (2S,4R)-1-(2-(2H-1,2,3-triazol-2-yl)acetyl)-N-(4-(4-fluorophenoxy)phenyl)-4-(3-methoxybenzyl)pyrrolidine-2-carboxamide] cannot be ordered by IC50: ≤ 300 nM for the first, ≤ 300 nM for the second.

O=C(Nc1ccc(Oc2ccc(F)cc2)cc1)[C@@H]1C[C@@H](Cc2ccc(F)cc2)C(=O)N1C(=O)Cn1cncn1 [Compound 71, (2S,4R)-1-(2-(1H-1,2,4-triazol-1-yl)acetyl)-4-(4-fluorobenzyl)-N-(4-(4-fluorophenoxy)phenyl)-5-oxopyrrolidine-2-carboxamide] and O=C(Nc1ccc(Oc2ccc(F)cc2)cc1)[C@@H]1C[C@H](Cc2ccc(F)cc2)CN1C(=O)Cn1cncn1 [Compound 76, (2S,4S)-1-(2-(1H-1,2,4-triazol-1-yl)acetyl)-4-(4-fluorobenzyl)-N-(4-(4-fluorophenoxy)phenyl)pyrrolidine-2-carboxamide] cannot be ordered by IC50: ≤ 300 nM for the first, ≤ 300 nM for the second.

O=C(Nc1ccc(Oc2ccc(F)cc2)cc1)[C@@H]1C[C@@H](Cc2ccsc2)CN1C(=O)Cn1cncn1 [Compound 72, (2S,4R)-1-(2-(1H-1,2,4-triazol-1-yl)acetyl)-N-(4-(4-fluorophenoxy)phenyl)-4-(thiophen-3-ylmethyl)pyrrolidine-2-carboxamide] and Cc1cc(Oc2ccc(NC(=O)[C@@H]3C[C@@H](Cc4ccc(F)cc4)CN3C(=O)Cn3cncn3)cc2)ccc1F [Compound 73, (2S,4R)-1-(2-(1H-1,2,4-triazol-1-yl)acetyl)-N-(4-(4-fluoro-3-methylphenoxy)phenyl)-4-(4-fluorobenzyl)pyrrolidine-2-carboxamide] cannot be ordered by IC50: ≤ 300 nM for the first, ≤ 300 nM for the second.

Cc1cc(F)ccc1Oc1ccc(NC(=O)[C@@H]2C[C@@H](Cc3ccc(F)cc3)CN2C(=O)Cn2cncn2)cc1 [Compound 74, (2S,4R)-1-(2-(1H-1,2,4-triazol-1-yl)acetyl)-N-(4-(4-fluoro-2-methylphenoxy)phenyl)-4-(4-fluorobenzyl)pyrrolidine-2-carboxamide] and O=C(Nc1ccc(Oc2ccc(F)cc2)cc1)[C@@H]1C[C@@H](Cc2ccc(F)cc2)CN1C(=O)Cn1ccnn1 [Compound 75, (2S,4R)-1-(2-(1H-1,2,3-triazol-1-yl)acetyl)-4-(4-fluorobenzyl)-N-(4-(4-fluorophenoxy)phenyl)pyrrolidine-2-carboxamide] cannot be ordered by IC50: ≤ 300 nM for the first, ≤ 300 nM for the second.

Source: US8791102B2, “Acetanilide sphingosine-1-phosphate receptor antagonists” (Exelixis, Inc., priority 2008, dated 2014)
